From PubChem BioAssay (NCI)
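Assay format: 96-well plates, 48-hour exposure. Abbreviation: GI50, concentration required for 50% inhibition of growth. TGI: concentration producing complete growth inhibition.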

Key:
Assay in all cases: inhibition of tumour cell growth, NCI panel, 48 h; in the data active = GI50 below about 0.43 µM; inactive = the rest
786-0 renal = tested on: 786-0 renal
A498 renal = tested on: A498 renal
A549 NSCLC = tested on: A549 NSCLC
ACHN renal = tested on: ACHN renal
BT-549 breast = tested on: BT-549 breast
CAKI-1 renal = tested on: CAKI-1 renal
CCRF-CEM leukemia = tested on: CCRF-CEM leukemia
COLO 205 colon = tested on: COLO 205 colon
DU-145 prostate = tested on: DU-145 prostate
EKVX NSCLC = tested on: EKVX NSCLC
HCC-2998 colon = tested on: HCC-2998 colon
HCT-116 colon = tested on: HCT-116 colon
HCT-15 colon = tested on: HCT-15 colon
HL-60(TB) leukemia = tested on: HL-60(TB) leukemia
HOP-62 NSCLC = tested on: HOP-62 NSCLC
HOP-92 NSCLC = tested on: HOP-92 NSCLC
HS 578T breast = tested on: HS 578T breast
HT29 colon = tested on: HT29 colon
IGROV1 ovarian = tested on: IGROV1 ovarian
K-562 leukemia = tested on: K-562 leukemia
KM12 colon = tested on: KM12 colon
LOX IMVI melanoma = tested on: LOX IMVI melanoma
M14 melanoma = tested on: M14 melanoma
MALME-3M melanoma = tested on: MALME-3M melanoma
MCF7 breast = tested on: MCF7 breast
MDA-MB-231 breast = tested on: MDA-MB-231 breast
MDA-MB-435 = tested on: MDA-MB-435
MOLT-4 leukemia = tested on: MOLT-4 leukemia
NCI-H226 lung = tested on: NCI-H226 lung
NCI-H23 lung = tested on: NCI-H23 lung
NCI-H460 lung = tested on: NCI-H460 lung
NCI/ADR-RES ovarian = tested on: NCI/ADR-RES ovarian
OVCAR-3 ovarian = tested on: OVCAR-3 ovarian
OVCAR-4 ovarian = tested on: OVCAR-4 ovarian
OVCAR-5 ovarian = tested on: OVCAR-5 ovarian
OVCAR-8 ovarian = tested on: OVCAR-8 ovarian
PC-3 prostate = tested on: PC-3 prostate
RPMI-8226 leukemia = tested on: RPMI-8226 leukemia
RXF 393 renal = tested on: RXF 393 renal
SF-268 CNS = tested on: SF-268 CNS
SF-295 CNS = tested on: SF-295 CNS
SF-539 CNS = tested on: SF-539 CNS
SK-MEL-2 melanoma = tested on: SK-MEL-2 melanoma
SK-MEL-28 melanoma = tested on: SK-MEL-28 melanoma
SK-MEL-5 melanoma = tested on: SK-MEL-5 melanoma
SK-OV-3 ovarian = tested on: SK-OV-3 ovarian
SN12C renal = tested on: SN12C renal
SNB-19 CNS = tested on: SNB-19 CNS
SNB-75 CNS = tested on: SNB-75 CNS
SW-620 colon = tested on: SW-620 colon
T-47D breast = tested on: T-47D breast
TK-10 renal = tested on: TK-10 renal
U251 CNS = tested on: U251 CNS
UACC-257 melanoma = tested on: UACC-257 melanoma
UACC-62 melanoma = tested on: UACC-62 melanoma
UO-31 renal = tested on: UO-31 renal
NCI-H522 lung = tested on: NCI-H522 lung
SR leukemia = tested on: SR leukemia

Cc1cccc(NC(=O)CCc2ccc(N3C(N)=NC(N)=NC3(C)C)cc2)c1
> 66.4 µM: TGI (PC-3 prostate)
> 76.3 µM: TGI (SF-295 CNS)
> 100 µM: TGI (786-0 renal) | TGI (A498 renal) | TGI (ACHN renal) | TGI (BT-549 breast) | TGI (CAKI-1 renal) | TGI (CCRF-CEM leukemia) | TGI (COLO 205 colon) | TGI (DU-145 prostate) | TGI (EKVX NSCLC) | TGI (HCC-2998 colon) | TGI (HCT-116 colon) | TGI (HCT-15 colon) | TGI (HL-60(TB) leukemia) | TGI (HOP-62 NSCLC) | TGI (HOP-92 NSCLC) | TGI (HS 578T breast) | TGI (HT29 colon) | TGI (IGROV1 ovarian) | TGI (K-562 leukemia) | TGI (KM12 colon) | TGI (LOX IMVI melanoma) | TGI (M14 melanoma) | TGI (MALME-3M melanoma) | TGI (MCF7 breast) | TGI (MDA-MB-231 breast) | TGI (MDA-MB-435) | TGI (MOLT-4 leukemia) | TGI (NCI-H226 lung) | TGI (NCI-H23 lung) | TGI (NCI-H460 lung) | TGI (NCI/ADR-RES ovarian) | TGI (OVCAR-3 ovarian) | TGI (OVCAR-4 ovarian) | TGI (OVCAR-5 ovarian) | TGI (OVCAR-8 ovarian) | TGI (RPMI-8226 leukemia) | TGI (RXF 393 renal) | TGI (SF-268 CNS) | TGI (SF-539 CNS) | TGI (SK-MEL-2 melanoma) | TGI (SK-MEL-28 melanoma) | TGI (SK-MEL-5 melanoma) | TGI (SK-OV-3 ovarian) | TGI (SN12C renal) | TGI (SNB-19 CNS) | TGI (SNB-75 CNS) | TGI (SW-620 colon) | TGI (T-47D breast) | TGI (TK-10 renal) | TGI (U251 CNS) | TGI (UACC-257 melanoma) | TGI (UACC-62 melanoma) | TGI (UO-31 renal)
active: GI50 (A549 NSCLC) 188 nM | GI50 (HT29 colon) 364 nM | GI50 (PC-3 prostate) 89 nM
inactive: GI50 (786-0 renal) 18.9 µM | GI50 (A498 renal) > 65.6 µM | GI50 (ACHN renal) > 100 µM | GI50 (BT-549 breast) 10.9 µM | GI50 (CAKI-1 renal) 97.3 µM | GI50 (CCRF-CEM leukemia) 1070 nM | GI50 (COLO 205 colon) 7.8 µM | GI50 (DU-145 prostate) 941 nM | GI50 (HCC-2998 colon) 3.34 µM | GI50 (HCT-116 colon) 632 nM | GI50 (HCT-15 colon) > 100 µM | GI50 (HL-60(TB) leukemia) 641 nM | GI50 (HOP-62 NSCLC) 16.9 µM | GI50 (HOP-92 NSCLC) 26 µM | GI50 (HS 578T breast) > 52 µM | GI50 (IGROV1 ovarian) 603 nM | GI50 (K-562 leukemia) 715 nM | GI50 (KM12 colon) 1240 nM | GI50 (LOX IMVI melanoma) 654 nM | GI50 (M14 melanoma) > 29.2 µM | GI50 (MALME-3M melanoma) > 46.9 µM | GI50 (MCF7 breast) 1240 nM | GI50 (MDA-MB-231 breast) > 65.2 µM | GI50 (MDA-MB-435) 560 nM | GI50 (MOLT-4 leukemia) 2700 nM | GI50 (NCI-H226 lung) > 64.7 µM | GI50 (NCI-H23 lung) 6.32 µM | GI50 (NCI-H460 lung) 454 nM | GI50 (NCI/ADR-RES ovarian) > 100 µM | GI50 (OVCAR-3 ovarian) 6.76 µM | GI50 (OVCAR-4 ovarian) 18.4 µM | GI50 (OVCAR-5 ovarian) > 37.2 µM | GI50 (OVCAR-8 ovarian) 13.6 µM | GI50 (RPMI-8226 leukemia) 3.17 µM | GI50 (RXF 393 renal) > 42.1 µM | GI50 (SF-268 CNS) 547 nM | GI50 (SF-295 CNS) 2560 nM | GI50 (SF-539 CNS) 1930 nM | GI50 (SK-MEL-2 melanoma) > 33.6 µM | GI50 (SK-MEL-28 melanoma) 11.8 µM | GI50 (SK-MEL-5 melanoma) 2480 nM | GI50 (SK-OV-3 ovarian) > 62.9 µM | GI50 (SN12C renal) 575 nM | GI50 (SNB-19 CNS) 8.35 µM | GI50 (SW-620 colon) 1130 nM | GI50 (T-47D breast) 38.6 µM | GI50 (TK-10 renal) 18.2 µM | GI50 (U251 CNS) 675 nM | GI50 (UACC-257 melanoma) 28.1 µM | GI50 (UACC-62 melanoma) 2370 nM | GI50 (UO-31 renal) > 100 µM
> 29 µM: TGI (A549 NSCLC)

Nc1sc2c(c1C(=O)c1ccc(Cl)c(Cl)c1)CCCC2
> 100 µM: TGI (786-0 renal) | TGI (A549 NSCLC) | TGI (ACHN renal) | TGI (BT-549 breast) | TGI (CAKI-1 renal) | TGI (CCRF-CEM leukemia) | TGI (COLO 205 colon) | TGI (DU-145 prostate) | TGI (EKVX NSCLC) | TGI (HCT-116 colon) | TGI (HCT-15 colon) | TGI (HOP-62 NSCLC) | TGI (HOP-92 NSCLC) | TGI (HS 578T breast) | TGI (HT29 colon) | TGI (K-562 leukemia) | TGI (KM12 colon) | TGI (LOX IMVI melanoma) | TGI (M14 melanoma) | TGI (MALME-3M melanoma) | TGI (MDA-MB-231 breast) | TGI (MDA-MB-435) | TGI (MOLT-4 leukemia) | TGI (NCI-H226 lung) | TGI (NCI-H23 lung) | TGI (NCI-H460 lung) | TGI (OVCAR-3 ovarian) | TGI (OVCAR-4 ovarian) | TGI (OVCAR-5 ovarian) | TGI (OVCAR-8 ovarian) | TGI (PC-3 prostate) | TGI (RXF 393 renal) | TGI (SF-268 CNS) | TGI (SF-295 CNS) | TGI (SF-539 CNS) | TGI (SK-MEL-28 melanoma) | TGI (SK-OV-3 ovarian) | TGI (SN12C renal) | TGI (SNB-19 CNS) | TGI (SR leukemia) | TGI (SW-620 colon) | TGI (T-47D breast) | TGI (TK-10 renal) | TGI (U251 CNS) | TGI (UACC-257 melanoma) | TGI (UACC-62 melanoma) | TGI (UO-31 renal)
65.3 µM: TGI (HL-60(TB) leukemia)
50.2 µM: TGI (NCI-H522 lung)
78.1 µM: TGI (RPMI-8226 leukemia)
64.8 µM: TGI (MCF7 breast)
44.1 µM: TGI (SK-MEL-2 melanoma)
86.4 µM: TGI (SNB-75 CNS)
49.3 µM: TGI (HCC-2998 colon)
